Earlier results on 1 substance are cited in article PMC4257705 (Organic letters, 2009).

For the series, the target named is αVβ3. As to conditions: tripeptide sequence Arg-Gly-Asp (RGD).

In the case of Arg-Gly-Asp [RGD], the Kd is around 1 nM.
